Measurements published in PubChem BioAssay (NCI).
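Briefly, cells in 96-well plates were exposed to five compound concentrations for 48 h, and endpoints were estimated by linear interpolation. GI50 is the concentration that inhibits growth by half. TGI denotes the concentration required for complete inhibition of growth.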

How the values were obtained:
Assay in all cases: NCI tumour cell line growth inhibition, 48 h
[1] = system: A498 renal
[2] = system: ACHN renal
[3] = system: CCRF-CEM leukemia
[4] = system: IGROV1 ovarian
[5] = system: MOLT-4 leukemia
[6] = system: NCI-H460 lung
[7] = system: RPMI-8226 leukemia
[8] = system: SF-539 CNS
[9] = system: UACC-257 melanoma

Q: Which results are given for `COC(=O)c1c(OC(C)=O)ccc2c1c1c(OC(C)=O)c3ccccc3c(OC(C)=O)c1n2Cc1cc(OC)cc(OC)c1`?
A: TGI [1]: 89.8 µM; TGI [2]: > 100 µM; TGI [3]: > 100 µM; TGI [4]: > 100 µM; TGI [5]: > 100 µM; TGI [6]: > 100 µM; TGI [7]: 20.8 µM; TGI [8]: 9.27 µM; TGI [9]: > 100 µM

Q: `COCn1c(C)c(C)c2c(=O)oc(=O)[nH]c21` was tested. Which TGI [1] did it give?
A: > 100 µM

Q: What about the TGI [2] of the same compound?
A: > 100 µM

Q: What about the TGI [3] of the same compound?
A: > 100 µM

Q: And the TGI [4]?
A: > 100 µM

Q: What about the TGI [5] of the same compound?
A: > 100 µM

Q: And the TGI [6]?
A: > 100 µM

Q: And the TGI [7]?
A: > 100 µM

Q: What about the TGI [8] of the same compound?
A: > 100 µM

Q: What about the TGI [9] of the same compound?
A: > 100 µM

Q: With `Cc1oc2nc1C(=O)NCc1nc(cs1)C(=O)N[C@H](C(C)C)c1nc(cs1)C(=O)N[C@H]2C` as the compound, how does the TGI [1] read?
A: > 100 µM

Q: What about the TGI [2] of the same compound?
A: > 100 µM

Q: And the TGI [3]?
A: > 100 µM

Q: What about the TGI [4] of the same compound?
A: > 100 µM

Q: And the TGI [5]?
A: > 100 µM

Q: And the TGI [6]?
A: > 100 µM

Q: And the TGI [7]?
A: 54.4 µM

Q: What about the TGI [8] of the same compound?
A: > 100 µM

Q: What about the TGI [9] of the same compound?
A: > 100 µM

Q: For `Nc1ccc2c(c1)C1Oc3ccccc3CC1CO2` (stereo unspecified), which TGI [1] is on record?
A: > 100 µM

Q: What about the TGI [3] of the same compound?
A: > 100 µM

Q: What about the TGI [4] of the same compound?
A: > 100 µM

Q: What about the TGI [5] of the same compound?
A: > 100 µM

Q: And the TGI [7]?
A: > 100 µM

Q: And the TGI [8]?
A: > 100 µM

Q: What about the TGI [9] of the same compound?
A: > 100 µM

Q: How did the TGI [1] turn out when `Cc1cc(O)c(C(C)C)cc1NC(=O)Nc1cccc2ccccc12` was run?
A: 26.5 µM

Q: And the TGI [2]?
A: 27.8 µM

Q: And the TGI [4]?
A: 37.7 µM

Q: What about the TGI [5] of the same compound?
A: > 100 µM

Q: What about the TGI [6] of the same compound?
A: 41.4 µM

Q: What about the TGI [9] of the same compound?
A: 33.4 µM

Q: For `Cc1c(CNc2ccc(Cl)c(C(=O)NC(CC(=O)O)C(=O)O)c2)ccc2nc(N)nc(N)c12` (stereo unspecified), which GI50 [1] is on record?
A: 24.9 µM

Q: And the TGI [1]?
A: 680 µM

Q: And the TGI [2]?
A: > 1000 µM

Q: What about the TGI [3] of the same compound?
A: > 1000 µM

Q: And the GI50 [4]?
A: 50.4 µM

Q: And the TGI [4]?
A: 232 µM

Q: What about the TGI [5] of the same compound?
A: > 1000 µM

Q: And the TGI [6]?
A: 323 µM

Q: What about the GI50 [8] of the same compound?
A: 0.446 µM

Q: What about the TGI [8] of the same compound?
A: > 1000 µM

Q: What about the GI50 [9] of the same compound?
A: 2.97 µM

Q: And the TGI [9]?
A: > 1000 µM

Q: Which TGI [1] does the source give for `CCCCC/C=C1/CC(CO)(COC(=O)CC(C(C)C)C(C)C)OC1=O` (stereo unspecified) here?
A: 26.5 µM

Q: What about the TGI [2] of the same compound?
A: 24.7 µM

Q: And the TGI [3]?
A: > 100 µM

Q: And the TGI [4]?
A: 31.7 µM

Q: And the TGI [5]?
A: 26.2 µM

Q: And the TGI [6]?
A: > 100 µM

Q: And the TGI [9]?
A: 47.4 µM

Q: For `C=CCNC1=C2C[C@@H](C)C[C@@H](OC)C(OC(=O)CCCN(C)C)[C@H](C)/C=C(\C)[C@@H](OC(N)=O)[C@H](OC)/C=C\C=C(/C)C(=O)NC(=CC1=O)C2=O` (stereo partly specified), which TGI [1] is on record?
A: 26.9 µM

Q: What about the TGI [2] of the same compound?
A: 20.6 µM

Q: What about the TGI [3] of the same compound?
A: 31.3 µM

Q: And the TGI [4]?
A: 21.7 µM

Q: And the TGI [5]?
A: 39.1 µM

Q: What about the TGI [6] of the same compound?
A: 13.9 µM

Q: What about the TGI [7] of the same compound?
A: 44.3 µM

Q: What about the TGI [8] of the same compound?
A: 19.3 µM

Q: And the TGI [9]?
A: 27.5 µM

Q: `COc1ccc2oc(S(=O)(=O)N3CC(CCl)c4ccc([N+](=O)[O-])cc43)cc2c1` (stereo unspecified) was tested. Which TGI [1] did it give?
A: 2.82 µM

Q: And the TGI [2]?
A: > 48.1 µM

Q: And the TGI [3]?
A: > 100 µM

Q: What about the TGI [5] of the same compound?
A: > 100 µM

Q: What about the TGI [6] of the same compound?
A: 0.401 µM

Q: What about the TGI [7] of the same compound?
A: > 100 µM

Q: And the TGI [8]?
A: 0.308 µM

Q: What about the TGI [9] of the same compound?
A: > 32.1 µM

Q: With `CCOC(=O)C1=CN=C2C(=O)N(c3ccccc3)N(C)C2(C)C1=N` (stereo unspecified) as the compound, how does the TGI [1] read?
A: > 100 µM

Q: What about the TGI [2] of the same compound?
A: > 100 µM

Q: And the TGI [3]?
A: > 100 µM

Q: And the TGI [4]?
A: > 100 µM

Q: What about the TGI [6] of the same compound?
A: > 100 µM

Q: And the TGI [7]?
A: > 100 µM

Q: What about the TGI [8] of the same compound?
A: > 100 µM

Q: What about the TGI [9] of the same compound?
A: > 100 µM

Q: With `C(=N\Nc1ncc(-c2cc3cc4c(cc3o2)OCO4)s1)/c1c[nH]c2ccccc12` as the compound, how does the GI50 [2] read?
A: 0.86 µM

Q: And the TGI [2]?
A: 2.61 µM

Q: And the GI50 [3]?
A: 0.392 µM

Q: And the TGI [3]?
A: > 100 µM

Q: What about the GI50 [5] of the same compound?
A: 0.385 µM

Q: What about the TGI [5] of the same compound?
A: 9.49 µM

Q: What about the GI50 [7] of the same compound?
A: 1.55 µM

Q: What about the TGI [7] of the same compound?
A: > 100 µM

Q: What about the GI50 [8] of the same compound?
A: 0.669 µM

Q: And the TGI [8]?
A: 1.98 µM

Q: And the GI50 [9]?
A: 2.57 µM

Q: And the TGI [9]?
A: 7.77 µM
